This is an account of results in patent EP2201949A1 (World Trade Import-Export, WTIE A.G., priority 2007, dated 2009).

One data set has as its system gout arthritis. In kind it is in vivo, female Wistar rats. Particulars: for Global anti-inflammatory and analgesic activity expressed in CT AUC: through 5 hours of assessment; for effect of used dose on walking capability / relaxation of the animals: rat, in vivo. An excerpt:
PIFIR experimental model is a preclinical model wherein gout arthritis is possible to be determined in a rodent and the anti-inflammatory and analgesic efficacy of several drugs in animals with this alteration is compared. This experimental model has some important advantages regarding other preclinical methodologies: a) an alteration which clinically affects to humans is established in the rodent: gout type arthritis; b) temporary course of anti-inflammatory and analgesic effect may be determined along […] in the same experimental subject, without producing rodent conditioning factor or learning, being this a significant disadvantage in other experimental models; c) less test drug is consumed compared with other experimental models; d) anti-inflammatory and analgesic effect assessment is performed by computer and not depending on sometimes subjective observations.
Experiments were performed by using female Wistar rats having a weight of about 180 to 200 g. Animals were kept in a room with alternate light/darkness cycles. Food was withdrawn from rats twelve hours before experimentation, with water ad-libitum. All experiments were carried out during light time, the animals being used only once.
Animals were anesthesized in a glass desiccator saturated with […]. Gout arthritis was induced by applying a 0.05 ml intra-articular uric acid injection suspended in mineral oil in the right anterior limb, exactly on the femoral-tibio-rotular joint. A 1 ml glass syringe was used for intra-articular injection with a No. 22 4 mm long needle. An electrode was fixed immediately later in every anterior leg between the plantar calluses. Rats were left to recover from anesthesia and they were enclosed in a 30 cm diameter stainless steel rotary cylinder. Cylinder was rotated at 4 rpm, forcing to the rats to walk during 2 min every half hour, during 5 hours after total dysfunction.
Contact time was the measured variable at every anterior leg from the rats in the cylinder. When electrode is in contact with the cylinder a circuit is closed and the contact time ratio between injured to uninjured legs was registered in a computer.
Temporary courses for every treatment were determined during 5 continuous hours, using a "n" of 6 rats per treatment.

The conditions of data set [1]: cited from earlier work.
Setting [2] is: each compound 177.8 mg/kg, alone or combined.
Where [3] appears, read: after being orally administered.

In the case of `COc1ccccc1OCC(O)COC(N)=O` (stereo not drawn) [Methocarbamol], the “Global anti-inflammatory and analgesic activity expressed in CT AUC” value in the data set with gout arthritis (setting [2]) is reported as 48.8 ± 21.0 ua. Besides, the “effect of used dose on walking capability / relaxation of the animals” value with gout arthritis was “slight relaxation effect”. Moreover, in data set [1] (setting [3]), the “beginning of pharmacological action” value is recorded as at most 30 minutes and the “total therapeutic action duration” value is given as “about 24 hours”. The half-life result in data set [1] (in vivo) was “about 14 hours”.
With `C[C@H]1C[C@H]2[C@@H]3CCC4=CC(=O)C=C[C@]4(C)[C@@]3(F)[C@@H](O)C[C@]2(C)[C@@]1(O)C(=O)CO` [Betamethasone], in the data set on gout arthritis (setting [2]), the “Global anti-inflammatory and analgesic activity expressed in CT AUC” value worked out at 31.6 ± 10.8 ua. Also, the “time of maximum effect after delivery” value in the data set with gout arthritis (each compound 177.8 mg/kg, single dose, alone or combined, CT over 5 hours) turned out to be 4.5 h. Also, the “Maximum effect (anti-inflammatory and analgesic effect)” value in the data set with gout arthritis (each compound 177.8 mg/kg, single dose, alone or combined, temporary course (CT) over 5 hours, n = 6 rats) was determined as 24.0 ± 11.9%. In the data set on gout arthritis, the “effect of used dose on walking capability / relaxation of the animals” value is “did not affect the walking rat capability”.
